Our source for the activity values is publication PMC6812009, “Covalent Aurora A regulation by the metabolic integrator coenzyme A” (Redox Biology, 2019).

What all share (experiment): Kinase profiling screen (radioactive filter-binding assay)
Holding throughout (format): biochemical

One test concerns the target T1, DYRK2 (Homo sapiens, UniProt Q92630).
T1 sequence (Q92630 1-601): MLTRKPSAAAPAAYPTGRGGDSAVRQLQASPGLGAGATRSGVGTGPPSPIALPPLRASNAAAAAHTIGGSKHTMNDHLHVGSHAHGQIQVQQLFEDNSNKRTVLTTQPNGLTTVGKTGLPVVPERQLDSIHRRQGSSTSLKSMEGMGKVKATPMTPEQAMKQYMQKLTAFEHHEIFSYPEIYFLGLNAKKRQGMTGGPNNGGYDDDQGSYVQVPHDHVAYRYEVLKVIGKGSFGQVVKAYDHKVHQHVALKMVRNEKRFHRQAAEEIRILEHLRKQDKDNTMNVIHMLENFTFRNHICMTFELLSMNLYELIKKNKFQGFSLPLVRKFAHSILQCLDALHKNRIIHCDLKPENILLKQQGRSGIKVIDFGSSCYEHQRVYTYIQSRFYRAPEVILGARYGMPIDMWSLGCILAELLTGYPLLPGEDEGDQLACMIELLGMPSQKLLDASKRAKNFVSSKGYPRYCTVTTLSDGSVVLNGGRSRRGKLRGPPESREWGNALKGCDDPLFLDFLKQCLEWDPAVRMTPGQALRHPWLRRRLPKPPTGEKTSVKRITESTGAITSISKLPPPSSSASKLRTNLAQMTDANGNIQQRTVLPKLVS
As to conditions: 100 μM compound, 50 μM ATP; read-out: Kinase activity, % of activity in the absence of inhibitor. The method in brief: (§1)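 Single-point in vitro screen: 100 μM final of CoA, dpCoA and ADP, run in duplicate against recombinant kinase with a model substrate and optimal ATP.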

A further test addresses T2, PDK1 (Homo sapiens, UniProt O15530).
T2 sequence (O15530 1-556): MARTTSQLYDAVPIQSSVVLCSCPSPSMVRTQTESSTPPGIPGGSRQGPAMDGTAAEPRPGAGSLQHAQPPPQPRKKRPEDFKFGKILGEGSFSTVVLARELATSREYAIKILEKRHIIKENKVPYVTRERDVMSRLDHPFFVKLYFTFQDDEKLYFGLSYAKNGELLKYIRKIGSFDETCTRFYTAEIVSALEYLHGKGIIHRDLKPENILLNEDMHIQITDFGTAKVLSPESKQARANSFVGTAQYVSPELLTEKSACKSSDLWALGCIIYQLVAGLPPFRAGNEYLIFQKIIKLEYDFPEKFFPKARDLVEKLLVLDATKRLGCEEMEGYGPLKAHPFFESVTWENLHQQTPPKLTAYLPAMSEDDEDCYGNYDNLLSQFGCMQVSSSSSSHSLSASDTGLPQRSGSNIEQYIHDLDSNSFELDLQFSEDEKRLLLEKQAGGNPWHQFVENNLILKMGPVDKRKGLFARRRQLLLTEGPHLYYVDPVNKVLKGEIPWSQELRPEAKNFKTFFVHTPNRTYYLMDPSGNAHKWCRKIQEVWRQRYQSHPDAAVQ
As to conditions: 100 μM compound, 20 μM ATP; read-out: Kinase activity, % of activity in the absence of inhibitor. Summed up:
as §1

For the next test, the target named is T3, EPH-B1 (Homo sapiens, UniProt P54762).
T3 sequence (P54762 18-984): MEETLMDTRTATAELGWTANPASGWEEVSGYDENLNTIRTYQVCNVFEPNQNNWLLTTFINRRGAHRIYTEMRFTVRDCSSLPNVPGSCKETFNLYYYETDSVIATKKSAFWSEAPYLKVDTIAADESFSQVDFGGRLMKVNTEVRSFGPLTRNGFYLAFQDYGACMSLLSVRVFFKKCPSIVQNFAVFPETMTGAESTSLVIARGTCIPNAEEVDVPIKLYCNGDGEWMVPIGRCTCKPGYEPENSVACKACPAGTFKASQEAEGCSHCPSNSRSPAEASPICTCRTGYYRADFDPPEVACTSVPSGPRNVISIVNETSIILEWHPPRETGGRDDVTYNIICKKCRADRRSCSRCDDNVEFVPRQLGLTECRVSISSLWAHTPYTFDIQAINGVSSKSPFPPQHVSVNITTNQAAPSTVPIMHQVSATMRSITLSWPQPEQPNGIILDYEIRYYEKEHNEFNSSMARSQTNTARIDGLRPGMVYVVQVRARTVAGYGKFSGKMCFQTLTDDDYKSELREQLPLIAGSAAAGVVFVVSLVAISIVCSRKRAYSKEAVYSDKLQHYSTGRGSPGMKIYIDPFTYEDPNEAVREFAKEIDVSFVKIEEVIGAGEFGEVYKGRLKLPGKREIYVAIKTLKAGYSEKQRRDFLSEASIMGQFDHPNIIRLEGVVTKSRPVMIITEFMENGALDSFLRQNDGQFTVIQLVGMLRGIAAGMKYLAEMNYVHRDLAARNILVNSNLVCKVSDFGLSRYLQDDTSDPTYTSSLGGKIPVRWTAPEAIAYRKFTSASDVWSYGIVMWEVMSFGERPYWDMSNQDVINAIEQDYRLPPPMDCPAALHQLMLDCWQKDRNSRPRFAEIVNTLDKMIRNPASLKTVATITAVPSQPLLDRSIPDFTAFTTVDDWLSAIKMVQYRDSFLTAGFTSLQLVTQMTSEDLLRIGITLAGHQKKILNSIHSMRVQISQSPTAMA
As to conditions: 100 μM compound, 20 μM ATP; read-out: Kinase activity, % of activity in the absence of inhibitor. The method in brief: as §1

The target in a further test is T4, TAK1 (Homo sapiens, UniProt O43318).
T4 sequence (O43318 1-303 limits assumed): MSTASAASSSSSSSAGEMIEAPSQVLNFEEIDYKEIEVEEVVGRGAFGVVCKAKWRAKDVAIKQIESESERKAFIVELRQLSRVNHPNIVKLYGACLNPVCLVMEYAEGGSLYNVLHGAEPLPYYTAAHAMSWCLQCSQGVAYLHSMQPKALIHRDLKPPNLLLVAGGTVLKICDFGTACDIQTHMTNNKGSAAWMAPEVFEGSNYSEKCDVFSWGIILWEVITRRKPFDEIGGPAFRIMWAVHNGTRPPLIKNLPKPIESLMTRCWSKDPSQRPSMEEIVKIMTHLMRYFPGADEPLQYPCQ
As to conditions: 100 μM compound, 5 μM ATP; read-out: Kinase activity, % of activity in the absence of inhibitor. Summed up: as §1

On to `Nc1ncnc2c1ncn2C1OC(COP(=O)(O)OP(=O)(O)O)C(O)C1O` (stereo not drawn) [ADP], for which the activity at 100 µM was 42.4% at DYRK2, 23.3% at PDK1, 11.6% on EPH-B1 and 15.8% on TAK1.
Taken in the same sequence, the figures for `CC(C)(COP(=O)(O)OP(=O)(O)OC[C@H]1O[C@@H](n2cnc3c(N)ncnc32)[C@H](O)[C@@H]1OP(=O)(O)O)[C@@H](O)C(=O)NCCC(=O)NCCS` [CoA, Coenzyme A] were 102%, 113%, 117% and 115%.
Take `CC(C)(COP(=O)(O)OP(=O)(O)OCC1OC(n2cnc3c(N)ncnc32)C(O)C1O)C(O)C(=O)NCCC(=O)NCCS` (stereo not drawn) [dpCoA, dephospho-CoA]: the activity at 100 µM on DYRK2 was 77%; at PDK1 it was 91.2%; on EPH-B1 it was 80%; on TAK1, 79.6%.
